For the first assay, the target named is T1, hDGAT1 (Homo sapiens, UniProt O75907).
T1 sequence (O75907 1-488): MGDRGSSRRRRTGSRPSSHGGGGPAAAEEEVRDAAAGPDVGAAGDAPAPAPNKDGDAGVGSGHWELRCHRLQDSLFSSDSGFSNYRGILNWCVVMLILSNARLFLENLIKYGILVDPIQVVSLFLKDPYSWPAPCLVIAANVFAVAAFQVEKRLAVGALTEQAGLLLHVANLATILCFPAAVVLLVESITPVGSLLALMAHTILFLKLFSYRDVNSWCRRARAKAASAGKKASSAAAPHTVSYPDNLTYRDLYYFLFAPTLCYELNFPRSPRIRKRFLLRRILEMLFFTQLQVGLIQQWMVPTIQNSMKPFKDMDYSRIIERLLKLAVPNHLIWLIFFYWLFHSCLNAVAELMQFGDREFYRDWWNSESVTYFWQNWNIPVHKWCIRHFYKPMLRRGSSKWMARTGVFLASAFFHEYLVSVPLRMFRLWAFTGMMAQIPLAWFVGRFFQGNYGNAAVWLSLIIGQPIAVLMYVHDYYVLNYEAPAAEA
Kind of assay: In-vitro DGAT1 assay (14C oleoyl CoA, hDGAT1 microsomes from Sf9 cells). The following applies: at 1 μM.
Description: Sf9 cells were seeded in spinner flasks on day 0 at a cell density of 1×10^6 and infected on day 1 with hDGAT1 baculovirus at a multiplicity of infection (MOI) of 5 and a cell density of 2×10^6. On day 3 (or 66-72 h), cells were harvested and centrifuged at 2500×g for 10 min. Pellet was resuspended in lysis buffer (100 mM sucrose, 50 mM KCl, 40 mM KH2PO4, 30 mM EDTA, pH 7.2) and passed through 21-gauge needle approximately 10 times. […] The supernatant was subjected to centrifugation at 35,000 rpm in a Beckman Ti-45 rotor at 4° C. for 1 h. The resultant pellet containing the microsomes wasere resuspended overnight in 1 mL of lysis buffer and total protein concentration was estimated using Bradford Reagent. Microsomes were aliquoted and stored at −80° C.
Frozen aliquots of hDGAT1 containing microsomes were thawed (5-10 mg/mL total protein) on ice and diluted to a working stock of 1 mg/mL with DGAT Assay Buffer (DAB).
The assay was performed in duplicates in a reaction volume of 100 μL. […] Procedure:
The reaction was started by the addition of 2.5 μL of 1 mg/mL of microsomes (iv) to the mixture and incubated at 37° C. for 10 min. […] The mixture was vortexed and the triglycerides formed were extracted into the organic heptane phase.
Regarding `CC(C)[C@@H](C(=O)O)N1Cc2ccc(-c3ccc(NC(=O)c4ccc(-c5ccccc5)cc4)cc3C(F)(F)F)cc2C1=O` [Example 426, (S)-2-(6-(4-Biphenyl-4-ylcarboxamido-2-(trifluoromethyl)phenyl)-1-oxoisoindolin-2-yl)-3-methylbutanoic acid], the “% Inhibition of hDGAT1” value was “+ (10-50% Inhibition)”.

Turning to `CC(C)[C@@H](C(=O)O)N1Cc2ccc(-c3ccc(NC(=O)c4ccc(-c5ccccc5)cc4)c(F)c3)cc2C1=O` [Example 448, (S)-2-(6-(4-Biphenyl-4-ylcarboxamido-3-fluorophenyl)-1-oxoisoindolin-2-yl)-3-methylbutanoic acid], the “% Inhibition of hDGAT1” value is reported as “++ (>50% Inhibition)”.

Regarding `COc1cc(NC(=O)c2ccc(-c3ccccc3)cc2)ccc1-c1ccc2c(c1)C(=O)N([C@H](C(=O)O)C(C)C)C2` [Example 458, (S)-2-(6-(4-Biphenyl-4-ylcarboxamido-2-methoxyphenyl)-1-oxoisoindolin-2-yl)-3-methylbutanoic acid], the “% Inhibition of hDGAT1” value is listed as “++ (>50% Inhibition)”.

Consider `Cc1cc(NC(=O)c2ccc(-c3ccccc3)cc2)ccc1-c1ccc2c(c1)C(=O)N([C@H](C(=O)O)C(C)C)C2` [Example 470, (S)-2-(6-(4-Biphenyl-4-ylcarboxamido-2-methylphenyl)-1-oxoisoindolin-2-yl)-3-methylbutanoic acid], for which the “% Inhibition of hDGAT1” value is listed as “++ (>50% Inhibition)”.

The assay is the same for the next values; noted with them: read-out: % Inhibition of hDGAT1.
For `CC(C)[C@@H](C(=O)O)N1Cc2ccc(-c3ccc(NC(=O)c4ccc5ccccc5c4)cc3C(F)(F)F)cc2C1=O` [Example 428, (S)-2-(6-(4-(2-Naphthamido)-2-(trifluoromethyl)phenyl)-1-oxoisoindolin-2-yl)-3-methylbutanoic acid], the inhibition (commonly the change of the read-out against control, counted positive when it falls) at 1 µM was in the range of 10 to 50%.

Take `CCCCCc1ccc(C(=O)Nc2ccc(-c3ccc4c(c3)C(=O)N([C@H](C(=O)O)C(C)C)C4)c(C(F)(F)F)c2)cc1` [Example 430, (S)-3-Methyl-2-(1-oxo-6-(4-(4-pentylbenzamido)-2-(trifluoromethyl)phenyl)isoindolin-2-yl)butanoic acid]: the inhibition at 1 µM was 10 to 50%.

`CCCCOc1ccc(C(=O)Nc2ccc(-c3ccc4c(c3)C(=O)N([C@H](C(=O)O)C(C)C)C4)c(C(F)(F)F)c2)cc1` [Example 432, (S)-2-(6-(4-(4-Butoxybenzamido)-2-(trifluoromethyl)phenyl)-1-oxoisoindolin-2-yl)-3-methylbutanoic acid]: the inhibition at 1 µM lay in the range of 10 to 50%.

For the compound `Cc1ccc(NC(=O)Nc2ccc(-c3ccc4c(c3)C(=O)N([C@H](C(=O)O)C(C)C)C4)cc2F)cc1C` [Example 436, (S)-2-(6-(4-(3-(3,4-Dimethylphenyl)ureido)-3-fluorophenyl)-1-oxoisoindolin-2-yl)-3-methylbutanoic acid], the inhibition at 1 µM was over 50%.

As to `CC(C)[C@@H](C(=O)O)N1Cc2ccc(-c3ccc(NC(=O)Nc4ccc5c(c4)CCC5)c(F)c3)cc2C1=O` [Example 438, (S)-2-(6-(4-(3-(2,3-Dihydro-1H-inden-5-yl)ureido)-3-fluorophenyl)-1-oxoisoindolin-2-yl)-3-methylbutanoic acid], the inhibition at 1 µM is over 50%.

`CC(C)[C@@H](C(=O)O)N1Cc2ccc(-c3ccc(NC(=O)Nc4ccc(F)c(F)c4)c(F)c3)cc2C1=O` [Example 440, (S)-2-(6-(4-(3-(3,4-Difluorophenyl)ureido)-3-fluorophenyl)-1-oxoisoindolin-2-yl)-3-methylbutanoic acid]: the inhibition at 1 µM is over 50%.

Take `CC(C)[C@@H](C(=O)O)N1Cc2ccc(-c3ccc(NC(=O)Nc4ccccc4Cl)c(F)c3)cc2C1=O` [Example 442, (S)-2-(6-(4-(3-(2-Chlorophenyl)ureido)-3-fluorophenyl)-1-oxoisoindolin-2-yl)-3-methylbutanoic acid]: the inhibition at 1 µM was over 50%.

As for `CC(C)[C@@H](C(=O)O)N1Cc2ccc(-c3ccc(NC(=O)c4ccc(C(C)(C)C)cc4)c(F)c3)cc2C1=O` [Example 444, (S)-2-(6-(4-(4-tert-Butylbenzamido)-3-fluorophenyl)-1-oxoisoindolin-2-yl)-3-methylbutanoic acid], the inhibition at 1 µM was over 50%.

As to `CCCCCc1ccc(C(=O)Nc2ccc(-c3ccc4c(c3)C(=O)N([C@H](C(=O)O)C(C)C)C4)cc2F)cc1` [Example 446, (S)-2-(6-(3-Fluoro-4-(4-pentylbenzamido)phenyl)-1-oxoisoindolin-2-yl)-3-methylbutanoic acid], the inhibition at 1 µM was over 50%.

With `CC(C)[C@@H](C(=O)O)N1Cc2ccc(-c3ccc(NC(=O)c4ccc5ccccc5c4)c(F)c3)cc2C1=O` [Example 450, (S)-2-(6-(4-(2-Naphthamido)-3-fluorophenyl)-1-oxoisoindolin-2-yl)-3-methyl butanoic acid], the inhibition at 1 µM was over 50%.

Consider `CCCCOc1ccc(C(=O)Nc2ccc(-c3ccc4c(c3)C(=O)N([C@H](C(=O)O)C(C)C)C4)cc2F)cc1` [Example 452, (S)-2-(6-(4-(4-Butoxybenzamido)-3-fluorophenyl)-1-oxoisoindolin-2-yl)-3-methyl butanoic acid], for which the inhibition at 1 µM is over 50%.

For the compound `COc1cc(NC(=O)c2ccc(C(C)(C)C)cc2)ccc1-c1ccc2c(c1)C(=O)N([C@H](C(=O)O)C(C)C)C2` [Example 456, (S)-2-(6-(4-(4-tert-Butylbenzamido)-2-methoxyphenyl)-1-oxoisoindolin-2-yl)-3-methylbutanoic acid], the inhibition at 1 µM was in the range of 10 to 50%.

With `CCCCOc1ccc(C(=O)Nc2ccc(-c3ccc4c(c3)C(=O)N([C@H](C(=O)O)C(C)C)C4)c(OC)c2)cc1` [Example 460, (S)-2-(6-(4-(4-Butoxybenzamido)-2-methoxyphenyl)-1-oxoisoindolin-2-yl)-3-methylbutanoic acid], the inhibition at 1 µM fell in the range of 10 to 50%.

For the compound `CCCCCc1ccc(C(=O)Nc2ccc(-c3ccc4c(c3)C(=O)N([C@H](C(=O)O)C(C)C)C4)c(OC)c2)cc1` [Example 462, (S)-2-(6-(2-Methoxy-4-(4-pentylbenzamido)phenyl)-1-oxoisoindolin-2-yl)-3-methylbutanoic acid], the inhibition at 1 µM was 10 to 50%.

For the compound `COc1cc(NC(=O)c2ccc(OC(F)(F)F)cc2)ccc1-c1ccc2c(c1)C(=O)N([C@H](C(=O)O)C(C)C)C2` [Example 464, (S)-2-(6-(2-Methoxy-4-(4-(trifluoromethoxy)benzamido)phenyl)-1-oxoisoindolin-2-yl)-3-methylbutanoic acid], the inhibition at 1 µM fell in the range of 10 to 50%.

In the case of `Cc1cc(NC(=O)c2ccc(C(C)(C)C)cc2)ccc1-c1ccc2c(c1)C(=O)N([C@H](C(=O)O)C(C)C)C2` [Example 468, (S)-2-(6-(4-(4-tert-Butylbenzamido)-2-methylphenyl)-1-oxoisoindolin-2-yl)-3-methylbutanoic acid], the inhibition at 1 µM is over 50%.

As to `CCCCOc1ccc(C(=O)Nc2ccc(-c3ccc4c(c3)C(=O)N([C@H](C(=O)O)C(C)C)C4)c(C)c2)cc1` [Example 472, (S)-2-(6-(4-(4-Butoxybenzamido)-2-methylphenyl)-1-oxoisoindolin-2-yl)-3-methylbutanoic acid], the inhibition at 1 µM is over 50%.

As for `CCCCCc1ccc(C(=O)Nc2ccc(-c3ccc4c(c3)C(=O)N([C@H](C(=O)O)C(C)C)C4)c(C)c2)cc1` [Example 474, (S)-3-Methyl-2-(6-(2-methyl-4-(4-pentylbenzamido)phenyl)-1-oxoisoindolin-2-yl)butanoic acid], the inhibition at 1 µM was over 50%.
